Reference: patent US20250057859A1, “CANNABICHROMENEQUINONE AND ANALOGUES THEREOF, AND METHOD OF USING COMPOSITIONS THEREOF AS ANTI-INFLAMMATORY AGENTS” (Juva Life, Inc., priority 2021, published 2025)

Columns and labels:
[1] = SK-MEL-28 cell line toxicity (Cell titer Glo viability); assay type: cell-based; settings: human, SK-MEL-28 melanoma cells, 72 h
Experimental: (§1) Culture medium were purchased from ATCC, USA.
(§2) 90 nL DMSO is added to control wells. […] Luminescence was then recorded using Synergy Neo2Multi-mode Reader.

[2] = test system: SK-MEL-28 melanoma cell line; experiment: as above; assay type: cell-based; settings: Homo sapiens, SK-MEL-28, 72 h
Experimental: as §1, §2

[3] = PC3 cell line toxicity (Cell titer Glo viability); assay type: cell-based; settings: human, PC3 prostate adenocarcinoma cells, 72 h
Experimental: as §2, §1

[4] = test system: PC3 prostate adenocarcinoma cell line; experiment: PC3 cell line toxicity (Cell titer Glo viability); assay type: cell-based; settings: Homo sapiens, PC-3; PC3, 72 h
Experimental: as §2, §1

in vitro = settings: human
Experimental: The half maximal inhibition concentration (IC50) for each compound was determined by harvesting cells during the logarithmic growth period and then counting cell number using hemocytometer. […] Then, using a Biomek FX, test articles were serially diluted (10 mM top, 3× dilution intervals) along with a reference inhibitor (1 mM top, 3× dilution intervals) in acoustic grade Labcyte plate. Then, using an acoustic dispenser (Labcyte550), compounds were added as serially diluted to plate with cells: 90 nL of serially diluted compounds per well. 90 nL DMSO is added to control wells. Test plates were incubated for 72 h in the humidified incubator at 37° C. with 5% CO2. 25 μL of reconstituted Cell titer Glo reagent was added to each well. Each test plate was then incubated for 20 min at room temperature. Luminescence was then recorded using Synergy Neo2Multi-mode Reader.
In order to calculate intersect IC50, a dose-response curve was fitted using nonlinear regression model with a sigmoidal dose response.
The formula for calculating surviving rate is shown below, and the intersect IC50 was calculated according to the dose-response curve generated by the software:
The compounds of interest were assessed cell viability in the HL-60 acute promyelocytic leukemia cell line (ATCC® CCL-240). […] Culture medium were purchased from ATCC, USA.

[5] = molecular target: T1, cannabinoid receptor 1 (CNR1) (Homo sapiens, UniProt P21554); experiment: CB1 receptor agonist assay (cAMP Hunter eXpress, CNR1 CHO-K1); assay type: cell-based; settings: Forskolin-stimulated CNR1 CHO-K1
T1 construct: host or cells: CHO-K1
T1 sequence (P21554 whole entry): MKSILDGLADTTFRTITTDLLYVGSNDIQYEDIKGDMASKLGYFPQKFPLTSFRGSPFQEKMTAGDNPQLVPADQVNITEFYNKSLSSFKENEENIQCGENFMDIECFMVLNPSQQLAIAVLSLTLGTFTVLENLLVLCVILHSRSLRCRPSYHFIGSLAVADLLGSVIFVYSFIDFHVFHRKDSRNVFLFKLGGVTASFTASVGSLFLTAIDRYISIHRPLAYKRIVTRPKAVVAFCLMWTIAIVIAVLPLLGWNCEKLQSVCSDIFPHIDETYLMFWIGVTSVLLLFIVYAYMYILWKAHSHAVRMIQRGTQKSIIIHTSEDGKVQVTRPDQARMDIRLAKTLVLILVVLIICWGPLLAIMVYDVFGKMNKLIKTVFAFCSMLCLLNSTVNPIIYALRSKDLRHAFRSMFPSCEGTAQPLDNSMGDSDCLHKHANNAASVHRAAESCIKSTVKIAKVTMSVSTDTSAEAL
Experimental: (§3) The assays were performed in cAMP Hunter eXpress cells engineered to overexpress naturally Gi/Go-coupled wildtype cannabinoid receptor 1 (CNR1) or cannabinoid receptor 2 (CNR2) in CHO-K1 cell type. In these cells, CB1 and/or CB2 agonists inhibit production of intracellular cAMP in response to stimulation with Forskolin. cAMP levels are determined using luminogenic detection reagents provided with the Hunter eXpress cAMP detection kit.
(§4) • Assay ready CNR1 CHO-K1 cells were obtained from Eurofins/Discover X, cat #95-0071E2 • Assay ready CNR2 CHO-K1 cells were obtained from Eurofins/Discover X, cat #95-0183E2 • Hunter eXpress cAMP detection kit was also from Discover X. The kit includes all cAMP detection reagents, Forskolin, complete cell plating medium and cell assay buffer.
(§5) The Assay-Ready CNR1 CHO-K1 or CNR2 CHO-K1 cells were thawed and re-suspended in pre-warmed Assay Complete plating medium and inoculated into 96well plate at a density of 30,000 cells in 100 μL. The plates with cells were incubated for 24 h at 37° C. in 5% CO2. […] The cells were stimulated with the Forskolin/compound buffer for 30 min. […] The plate was read on Biotek Synergy Neo2 reader in luminescent mode. […] Relative luminescence units (RLUs) were plotted against compound concentration to determine apparent EC50 values of the agonist compounds.

[6] = molecular target: T2, cannabinoid receptor 2 (CNR2) (Homo sapiens, UniProt P34972); experiment: CB2 receptor agonist assay (cAMP Hunter eXpress, CNR2 CHO-K1); assay type: cell-based
T2 construct: host or cells: CHO-K1
T2 sequence (P34972 whole entry): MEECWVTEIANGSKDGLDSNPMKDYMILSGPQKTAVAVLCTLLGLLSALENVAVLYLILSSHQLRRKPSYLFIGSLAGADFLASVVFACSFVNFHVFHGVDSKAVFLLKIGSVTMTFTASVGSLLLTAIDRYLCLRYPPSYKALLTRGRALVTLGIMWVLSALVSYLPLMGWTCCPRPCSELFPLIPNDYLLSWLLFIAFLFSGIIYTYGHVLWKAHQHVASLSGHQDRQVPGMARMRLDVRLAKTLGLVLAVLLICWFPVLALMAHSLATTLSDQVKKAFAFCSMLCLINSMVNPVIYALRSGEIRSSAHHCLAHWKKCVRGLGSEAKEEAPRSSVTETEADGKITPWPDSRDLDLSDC
Experimental: as §3, §4, §5

## CN[C@@H]1C[C@H]2O[C@@](C)([C@@H]1OC)n1c3ccccc3c3c4c(c5c6ccccc6n2c5c31)C(=O)NC4 [Staurosporine, staurosporine, reference compound]
[1]; SK-MEL-28, 0.00017 uM
  viability at 72 h, 0.00017 µM: 96.2%
[1]; SK-MEL-28, 0.00051 uM
  viability at 72 h, 0.00051 µM: 94.9%
[1]; SK-MEL-28, 0.0015 uM
  viability at 72 h, 0.0015 µM: 96.7%
[1]; SK-MEL-28, 0.0046 uM
  viability at 72 h, 0.0046 µM: 94.1%
[1]; SK-MEL-28, 0.014 uM
  viability at 72 h, 0.014 µM: 92.9%
[1]; SK-MEL-28, 0.041 uM
  viability at 72 h, 0.041 µM: 70%
[1]; SK-MEL-28, 0.12 uM
  viability at 72 h, 0.12 µM: 53.9%
[1]; SK-MEL-28, 0.37 uM
  viability at 72 h, 0.37 µM: 41.1%
[1]; SK-MEL-28, 1.1 uM
  viability at 72 h, 1.1 µM: 33%
[1]; SK-MEL-28, 3.3 uM
  viability at 72 h, 3.3 µM: 17.3%
[1]; SK-MEL-28, 10 uM
  viability at 72 h, 10 µM: 8.55%
[1]; SK-MEL-28, 30 uM
  viability at 72 h, 30 µM: 8.85%
[2]
  IC50: ~210 nM
[3]; PC3, 0.00017 uM
  viability at 72 h, 0.00017 µM: 102%
[3]; PC3, 0.00051 uM
  viability at 72 h, 0.00051 µM: 92.2%
[3]; PC3, 0.0015 uM
  viability at 72 h, 0.0015 µM: 67.1%
[3]; PC3, 0.0046 uM
  viability at 72 h, 0.0046 µM: 43.2%
[3]; PC3, 0.014 uM
  viability at 72 h, 0.014 µM: 34.5%
[3]; PC3, 0.041 uM
  viability at 72 h, 0.041 µM: 12.7%
[3]; PC3, 0.12 uM
  viability at 72 h, 0.12 µM: 10.3%
[3]; PC3, 0.37 uM
  viability at 72 h, 0.37 µM: 9.5%
[3]; PC3, 1.1 uM
  viability at 72 h, 1.1 µM: 8.4%
[3]; PC3, 3.3 uM
  viability at 72 h, 3.3 µM: 8.1%
[3]; PC3, 10 uM
  viability at 72 h, 10 µM: 6.8%
[3]; PC3, 30 uM
  viability at 72 h, 30 µM: 7.1%
[4]
  IC50: ~4 nM
In vitro
  viability at 0.00017 µM: 98.3%
  viability at 0.00051 µM: 96.5%
  viability at 0.0015 µM: 98.3%
  viability at 0.0046 µM: 90.4%
  viability at 0.014 µM: 66.6%
  viability at 0.041 µM: 36.3%
  viability at 0.12 µM: 27.7%
  viability at 0.37 µM: 18.7%
  viability at 1.1 µM: 13.9%
  viability at 3.3 µM: 11.7%
  viability at 10 µM: 10.4%
  viability at 30 µM: 9.6%

## CCCCCc1cc(O)c2c(c1)OC(C)(C)C1CCC(CO)=CC21 (centres unmarked) [11-hydroxy-THC]
[5]
  EC50: 1 nM
[6]; agonist, cAMP, Forskolin-stimulated CNR2 CHO-K1
  EC50: 51 nM
[6]; ratio of EC50 values
  Selectivity for CB2 over CB1: 0.02 fold
